According to US20220372585A1, “Sensors for Aromatic Compounds and Methods of Making and Using Same” (Washington University, priority 2021, published 2022):

How the values were obtained:
[1] = test system: wild-type TynA with M83Y FeaR; test: PtynA-GFP reporter, wild-type TynA with M83Y FeaR (pCX068); type: cell-based, E. coli MG1655; conditions: pCX008, pCX068, FIG. 6D, 24 h
Procedure: (§1) Flow cytometry was performed as previously described. […] Cytometry data was gated by forward and side scatter.

[2] = Sauerkraut, safe limit; cited from earlier work
[3] = test system: sensor systems containing FeaR-KA; test: GFP fluorescence from PtynA in part-swapped sensor systems containing FeaR-KA; type: cell-based, Klebsiella aerogenes; conditions: 0.5 mM, 24 h, FIG. 31
Text: FIG. 31. […] PtynA from MG or KP/KA was regulated by TynA from MG or KP and FeaR from MG or KA. […] Values and error bars are the average and standard deviation of biological triplicate, respectively.
Tryptamine specific biosensors were first designed by genetic parts swapping. Three types of tynA and feaR genes from E. coli K-12 MG1655 (MG), Klebsiella aerogenes (KA), and Klebsiella pneumoniae (KP), and two types of PtynA sequences were chosen and tested in 18 different combinations (see e.g., FIG. 30). PtynA-KP/KA was constructed by replacing the FeaR binding sites of PtynA-MG with those from Klebsiella species.
Moreover, a Tryptamine specific variant I109N was discovered using a sensor system with PtynA-MG, TynA-KP and FeaR-KA as the wild type (VVT) for further directed evolution (see e.g., FIG. 32). […] Transfer curves for the tryptamine-specific FeaR-KA I109N sensor after 5 or 24 hours of induction further illustrate the specificity of the sensor for tryptamine (see e.g., FIG. 33A-FIG. 33B).

WT TrpR = target: T1, WT TrpR (Escherichia coli, UniProt P0A881); test: WT TrpR system, repression of GFP expression; type: cell-based, E. coli
T1 construct: trpR (WT); expressed in transfected cells; host or cells: E. coli Nissle 1917 (EcN), genomic trpR knocked out; plasmid pMBA035 (P17-trpR)
Text: Among the various aspects of the present disclosure is the provision of systems and methods for detecting aromatic compounds. An aspect of the present disclosure provides for a method of protein engineering (e.g., a regulator protein) comprising: mutagenizing specific amino acids in and around a ligand-binding site of a protein, wherein the mutagenizing enables changes in ligand-protein binding specificity while maintaining protein-DNA interaction and thus downstream gene expression control; and/or linking ligand-protein binding to output response. An aspect of the present disclosure provides for an engineered molecular sensor. […] In some embodiments, the engineered regulator protein or the ligand-protein binding site or a sequence encoding the engineered regulator protein or the ligand-protein binding site of the engineered regulator protein is at least about 80% identical to a WT regulator protein or a WT regulator ligand-protein binding site; or a sequence encoding the engineered regulator protein or ligand binding site thereof is at least about 80% identical to a sequence encoding the WT regulator protein or the WT regulator ligand-protein binding site; or functional fragment thereof, the engineered regulator protein having ligand binding activity. In some embodiments, the engineered molecular sensor is optionally genomically integrated into a microorganism, optionally selected from a probiotic or is a purified cell-free sensor. In some embodiments, the engineered regulator protein or enzyme is an engineered TrpR, TyrR, TynA, or FeaR protein. […] In some embodiments, the engineered regulator protein is an engineered TrpR and is a tryptophan (Trp)-, 5-hydroxytryptophan (5-HTP)-, or tryptamine (Trpta)-specific sensor. In some embodiments, the engineered regulator protein or enzyme is an engineered TrpR, TyrR, TynA, or FeaR, and/or wherein the engineered TrpR, TyrR, TynA, or FeaR comprises at least one mutation to a ligand-protein binding site having specific amino acid binding activity. […]

[4] = test system: wild-type TynA with W110S FeaR; type: cell-based, E. coli MG1655; conditions: W110S FeaR; 24 h; FIG. 28C
Procedure: as §1

Compound	Fmax [1]	Fmin [1]	n (Hill coefficient) [1]	Concentration [2] [µM]	fluorescence intensity [3]	fold repression of GFP expression (WT TrpR) [fold]	response [4]
NCCc1ccccc1 [Phenylethylamine, phenylethylamine]	1004	5.8	2.1	30			
NCCc1c[nH]c2ccccc12 [Tryptamine, tryptamine]					significant enhancement of fluorescence intensity	7	lack of response
